According to patent publication US9980943B2, “Methods of treating muscular dystrophy” (BOARD OF REGENTS OF THE NEVADA SYSTEM OF HIGHER EDUCATION, …, priority 2013, dated 2018):

What was measured:
Assay type in all cases: cell-based, mouse
[1] = system: β-galactosidase in CMV-LacZ C2C12 myotubes; experiment: CMV-LacZ secondary screen in C2C12 myotubes (β-Gal stabilizing assay); settings: SU9516 analogs, C2C12 CMV-LacZ, N=2
In short: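 β-Gal level was the read-out, measured in a clonal C2C12 line expressing LacZ from a CMV promoter. Dose-response curves used six concentrations, 0.5 μM up to 40 μM, with duplicate points.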

[2] = system: β-galactosidase in CMV-LacZ C2C12 myoblasts; experiment: CMV-LacZ secondary screen in C2C12 myoblasts (β-Gal stabilizing assay); settings: SU9516 analogs, C2C12 CMV-LacZ, N=2
In short: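 First, C2C12 myoblasts were transfected with a linearized CMV-LACZ vector and clonal lines selected by FDG β-gal assay. Then cells were exposed to compounds at 0.5, 1, 5, 10, 20 and 40 μM in 96-well format, two replicates each, and β-gal measured.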

[3] = system: α7 integrin (LacZ reporter in α7βgal+/− myoblasts); experiment: Myoblast α7+/LacZ integrin FDG assay (Burkin assay in myoblasts, 96-well); settings: SU9516 analogs, 96-well, N=3-6
[4] = system: α7 integrin (LacZ reporter in α7+/LacZ myotubes); experiment: Myotube α7 integrin FDG assay (Burkin assay in myotubes, 96-well); settings: SU9516 analogs, 96-well, N=3-6

| SMILES | CMV-LACZ in Myotubes, value relative to DMSO ([1]; 0.5 uM) | CMV-LACZ in Myotubes, value relative to DMSO ([1]; 1 uM) | CMV-LACZ in Myotubes, value relative to DMSO ([1]; 5 uM) | CMV-LACZ in Myotubes, value relative to DMSO ([1]; 10 uM) | CMV-LACZ in Myotubes, value relative to DMSO ([1]; 20 uM) | CMV-LACZ in Myotubes, value relative to DMSO ([1]; 40 uM) | CMV-LACZ in Myoblasts, value relative to DMSO ([2]; 0.5 uM) | CMV-LACZ in Myoblasts, value relative to DMSO ([2]; 1 uM) | CMV-LACZ in Myoblasts, value relative to DMSO ([2]; 5 uM) | CMV-LACZ in Myoblasts, value relative to DMSO ([2]; 10 uM) | CMV-LACZ in Myoblasts, value relative to DMSO ([2]; 20 uM) | CMV-LACZ in Myoblasts, value relative to DMSO ([2]; 40 uM) | Burkin Assay in Myoblasts, value relative to DMSO ([3]; 0.5 uM) | Burkin Assay in Myoblasts, value relative to DMSO ([3]; 1 uM) | Burkin Assay in Myoblasts, value relative to DMSO ([3]; 5 uM) | Burkin Assay in Myoblasts, value relative to DMSO ([3]; 10 uM) | Burkin Assay in Myoblasts, value relative to DMSO ([3]; 20 uM) | Burkin Assay in Myoblasts, value relative to DMSO ([3]; 40 uM) | Burkin Assay in Myotubes, value relative to DMSO ([4]; 0.5 uM) | Burkin Assay in Myotubes, value relative to DMSO ([4]; 1 uM) | also measured |
| --- | --- | --- | --- | --- | --- | --- | --- | --- | --- | --- | --- | --- | --- | --- | --- | --- | --- | --- | --- | --- | --- |
| C=CCOc1ccc(C(=O)/C=C2/C(=O)Nc3ccccc32)cc1 [MLS001214264-01] | 1.1210 | 1.1905 | 0.9411 | 1.1534 | 1.2424 | 1.4482 | 1.0657 | 1.1383 | 1.3058 | 0.9233 | 0.3870 | 0.4856 | 0.8908 | 0.8464 | 0.743 | 0.7009 | 0.7879 | 0.2394 | 0.9576 | 0.8975 | Burkin Assay in Myotubes, value relative to DMSO ([4]; 5 uM): 0.9073; Burkin Assay in Myotubes, value relative to DMSO ([4]; 10 uM): 1.058; Burkin Assay in Myotubes, value relative to DMSO ([4]; 20 uM): 0.7165; Burkin Assay in Myotubes, value relative to DMSO ([4]; 40 uM): 0.7173 |
| CC(C)Oc1ccc(C(=O)/C=C2/C(=O)Nc3ccccc32)cc1 [MLS001214276-01] | 0.7733 | 0.9141 | 2.0151 | 11.1000 | 0.5259 | 0.4976 | 0.9516 | 0.8731 | 1.3014 | 1.2231 | 1.2922 | 0.1781 | 1.328 | 1.222 | 0.6234 | 0.3235 | 0.2022 | 0.02694 | 1.162 | 1.197 | Burkin Assay in Myotubes, value relative to DMSO ([4]; 5 uM): 0.9019; Burkin Assay in Myotubes, value relative to DMSO ([4]; 10 uM): 0.6945; Burkin Assay in Myotubes, value relative to DMSO ([4]; 20 uM): 0.2362; Burkin Assay in Myotubes, value relative to DMSO ([4]; 40 uM): 0.07736 |
| NC(=O)COc1ccc(C(=O)/C=C2/C(=O)Nc3ccccc32)cc1 [MLS001214300-01] | 0.9819 | 0.8924 | 1.0550 | 1.0956 | 6.2635 | 0.7118 | 1.0446 | 0.9403 | 0.7949 | 1.1047 | 0.4007 | 0.1793 | 1.211 | 0.9366 | 0.8041 | 0.353 | 0.1847 | 0.02593 | 1.019 | 1.039 | Burkin Assay in Myotubes, value relative to DMSO ([4]; 5 uM): 1.091; Burkin Assay in Myotubes, value relative to DMSO ([4]; 10 uM): 0.8733; Burkin Assay in Myotubes, value relative to DMSO ([4]; 20 uM): 0.7447; Burkin Assay in Myotubes, value relative to DMSO ([4]; 40 uM): 0.3178 |
